Like-named read-outs stand apart in the source and are kept apart here. Residues, ends and D or L forms follow the SMILES beside them.
Key:
[1] = test system: HIV-1 NL4-3D36G; experiment: Inhibition of infection by T-20-sensitive strain NL4-3D36G; type: cell-based; conditions: for Dose reduction: NL4-3D36G
Protocol: (§1) 2. Inhibition of HIV infection as measured by luciferase assay. The inhibitory activity of fusion/entry inhibitors on HIV infection in TZM-bl cells was determined by using a luciferase assay (Wei X et al. Antimicrob. Agents Chemother. 46:1896-1905, 2002). Briefly, 50 μl of a compound at graded concentration in triplicate were incubated with an equal volume of an HIV-1 isolate at 0.01 multiplicity of infection (MOI) at 37° C. for 30 min, followed by addition of the mixture to 100 μl TZM-bl cells (1×10^5/ml) that were pre-cultured in a 96-well plate at 37° C. overnight. After further culture at 37° C. for 3 days, the cells were harvested and lyzed with 50 μl lysing reagent. The luciferase activity was analyzed using a luciferase kit (Promega Corp.) and a luminometer (Model: Ultra […], Tecan) according to the manufacture's instruction. The percent inhibition of cell fusion by a compound as well as EC50 and EC90 values were calculated using the software CalcuSyn.
(§2) 3. Inhibition of HIV replication as measured by p24 antigen production. The inhibitory activity of fusion/entry inhibitors on HIV-1 infection as measured by p24 antigen production was determined as previously described (Zhao Q et al. AIDS Res Hum Retroviruses 18:989-997, 2002). In brief, 1×10^4 MT-2 cells were infected with an HIV-1 strain (100 TCID50) in 200 μl RPMI 1640 medium containing 10% FBS in the presence or absence of testing compounds at graded concentrations overnight. Then the culture supernatants were removed and fresh media containing no testing compounds were added. On the fourth day post-infection, 100 μl of culture supernatants were collected from each well, mixed with equal volumes of 5% Triton X-100 and assayed for p24 antigen, which was quantitated by ELISA. Briefly, wells of polystyrene plates were coated with HIV immunoglobulin (HIVIG, prepared from plasma of HIV-seropositive donors with high neutralizing titers against HIV-1IIIB), in 0.085 M carbonate-bicarbonate buffer (pH 9.6) at 4° C. overnight, followed by washes with washing buffer (0.01 M PBS containing 0.05% Tween-20) and blocking with PBS containing 1% dry fat-free milk. Virus lysates were added to the wells and incubated at 37° C. for 1 hr. […] Reactions were terminated by addition of 1N H2SO4. Absorbance at 450 nm was recorded in an ELISA reader (Ultra 384, TECAN). Recombinant protein p24, purchased from US Biological, was included for establishing standard dose response curves. Each sample was tested in triplicate. The percentage of inhibition of p24 production was calculated as previously described (Neurath A R et al. BMC Infect Dis 2:6, 2002).
(§3) 4. Synergy analysis. […] In all analyses, HIV fusion/entry inhibitors were assumed to act noncompetitively, which led to a more conservative estimate of synergy. CI values<1 and >1 indicate synergy and antagonism, respectively. Dose reductions were calculated as the compound concentrations required for inhibition of HIV-1 replication when the compound was used alone and in combination. The statistic analysis was performed by the One-Way Analysis of Variance (One-Way ANOVA) method using Origin 6.1 software.

[2] = test system: HIV-1 RU570 (clade G, R5); experiment: Inhibition of infection by primary HIV-1 isolate RU570; type: cell-based; conditions: for Dose reduction: RU570
Protocol: (§4) Inhibitory activity of fusion/entry inhibitors on infection by a primary HIV-1 isolate was determined as previously described (Jiang S et al. Antimicrob Agents Chemother 48:4349-4359, 2004). Peripheral blood mononuclear cells (PBMCs) were isolated from the blood of healthy donors by standard density gradient centrifugation using Histopaque-1077 (Sigma). The cells were plated in 75 cm^2 plastic flasks and incubated at 37° C. for 2 hrs. The nonadherent cells were collected and resuspended at 5×10^6 in 10 ml RPMI-1640 medium containing 10% FBS, 5 μg/ml PHA (phytohemagglutinin) and 100 U/ml IL-2 (Sigma), followed by incubation at 37° C. for 3 days. The PHA-stimulated cells were infected with a primary HIV-1 isolates at 0.01 MOI in the absence or presence of a compound at graded concentrations. Culture media were changed every 3 days. The supernatants were collected 7 days post-infection and tested for p24 antigen by ELISA as described above. The percent inhibition of p24 production and EC50 values were calculated as described above.
as §3

[3] = test system: HIV-1 93IN101 (subtype C, R5); conditions: for Dose reduction: 93IN101
Protocol: as §4, §3

[4] = test system: HIV-1 NL4-3(36G)V38A/N42D
Protocol: as §1, §2, §3

[5] = test system: HIV-1 NL4-3(36G)V38E/N42S
Protocol: as §1, §2, §3

[6] = test system: HIV-1 BaL (subtype B, R5); conditions: for Dose reduction: Bal
Protocol: as §1, §2, §3

[7] = test system: HIV-1 NL4-3(36G)V38A
Protocol: as §1, §2, §3

[8] = test system: HIV-1 IIIB (subtype B, X4); conditions: for Dose reduction: IIIB
Protocol: as §1, §2, §3

[9] = read-out: EC50 alone, peptide alone

CC[C@H](C)[C@H](NC(=O)[C@H](C)NC(=O)[C@H](CCCNC(=N)N)NC(=O)[C@H](CC(=O)O)NC(=O)[C@H](Cc1c[nH]c2ccccc12)NC(=O)[C@H](C)NC(=O)[C@H](CCC(=O)O)NC(=O)[C@H](Cc1c[nH]c2ccccc12)NC(=O)[C@@H](NC(=O)[C@@H](NC(C)=O)[C@@H](C)O)[C@@H](C)O)C(=O)N[C@@H](C)C(=O)N[C@@H](CCC(=O)O)C(=O)N[C@@H](Cc1ccc(O)cc1)C(=O)N[C@@H](C)C(=O)N[C@@H](C)C(=O)N[C@@H](CCCNC(=N)N)C(=O)N[C@H](C(=O)N[C@@H](CCC(=O)O)C(=O)N[C@@H](C)C(=O)N[C@@H](CC(C)C)C(=O)N[C@@H](CC(C)C)C(=O)N[C@@H](CCCNC(=N)N)C(=O)N[C@@H](C)C(=O)N[C@@H](CC(C)C)C(=O)N[C@@H](CCC(N)=O)C(=O)N[C@@H](CCC(=O)O)C(=O)N[C@@H](CCC(N)=O)C(=O)N[C@@H](CCC(N)=O)C(=O)N[C@@H](CCC(=O)O)C(=O)N[C@@H](CCCCN)C(=O)N[C@@H](CC(N)=O)C(=O)N[C@@H](CCC(=O)O)C(=O)N[C@@H](C)C(=O)N[C@@H](C)C(=O)N[C@@H](CC(C)C)C(=O)N[C@@H](CCCNC(=N)N)C(=O)N[C@@H](CCC(=O)O)C(=O)N[C@@H](CC(C)C)C(N)=O)[C@@H](C)CC [T-1144] (Ac-TTWEAWDRAIAEYAARIEALLRALQEQQEKNEAALREL-NH2; N-terminus and C-terminus assumed) showed an EC50 ([1]; NL4-3D36G (T-20-sensitive), peptide alone) of 5.85 nM, a Dose reduction ([1]; T-20+T-1249+T-1144 7:5:1) of 15.81 fold and a Dose reduction ([1]; T-20 combined with T-1144) of 13.00 fold. It also gave an EC50 ([2]; RU570 (G, R5) primary isolate, peptide alone, read-out: EC50 alone) of 24.2 nM, a Dose reduction ([2]; T-20+T-1249+T-1144 4:1:1) of 21.23 fold and a Dose reduction ([2]; T-20 combined with T-1144) of 18.62 fold. It also gave a Dose reduction ([3]; T-20+T-1249+T-1144 4:1:1) of 24.17 fold, a Dose reduction ([3]; T-20 combined with T-1144) of 14.46 fold and an EC50 ([3]; read-out: EC50 alone, 93IN101 (C, R5) primary isolate, peptide alone) of 15.5 nM. The Dose reduction ([4]; T-20+T-1249+T-1144 80:1:1) was 9.33 fold, the Dose reduction ([4]; T-20 combined with T-1144) was 1.82 fold and the EC50 [4, 9] was 4.57 nM. It also gave a Dose reduction ([5]; T-20+T-1249+T-1144 3000:200:1) of 37.21 fold, a Dose reduction ([5]; T-20 combined with T-1144) of 4.17 fold and an EC50 [5, 9] of 5.21 nM. The Dose reduction ([6]; T-20+T-1249+T-1144 2:1:1) was 209.00 fold, the Dose reduction ([6]; T-20 combined with T-1144) was 19.90 fold and the EC50 ([6]; read-out: EC50 alone, Bal (B, R5), peptide alone) was 4.18 nM. The Dose reduction ([7]; T-20+T-1249+T-1144 80:1:1) was 37.60 fold, the Dose reduction ([7]; T-20 combined with T-1144) was 16.35 fold and the EC50 [7, 9] was 3.76 nM. It also gave a Dose reduction ([8]; T-20+T-1249+T-1144 16:4:1) of 99.00 fold, a Dose reduction ([8]; T-20 combined with T-1144) of 7.98 fold and an EC50 ([8]; read-out: EC50 alone, IIIB (B, X4), peptide alone) of 4.95 nM.

Source: US7919101B2 (priority 2008, dated 2011)
